Reference: patent publication US10899759B2, “Positive allosteric modulators of the muscarinic acetylcholine receptor M1” (Vanderbilt University, priority 2016, dated 2021)

Columns and labels:
[1] = target: T1, human mAChR M1 (Homo sapiens, UniProt P11229); assay: mAChR M1 cell-based functional assay (calcium mobilization, Fluo-4, FDSS); conditions: CHO-K1 cells stably expressing hM1; for Emax: EC20 acetylcholine response, read-out: Human M1 Emax; for EC50: positive allosteric modulator activity as increase in the EC20 acetylcholine response
T1 construct: host or cells: CHO-K1
T1 sequence (P11229 1-460): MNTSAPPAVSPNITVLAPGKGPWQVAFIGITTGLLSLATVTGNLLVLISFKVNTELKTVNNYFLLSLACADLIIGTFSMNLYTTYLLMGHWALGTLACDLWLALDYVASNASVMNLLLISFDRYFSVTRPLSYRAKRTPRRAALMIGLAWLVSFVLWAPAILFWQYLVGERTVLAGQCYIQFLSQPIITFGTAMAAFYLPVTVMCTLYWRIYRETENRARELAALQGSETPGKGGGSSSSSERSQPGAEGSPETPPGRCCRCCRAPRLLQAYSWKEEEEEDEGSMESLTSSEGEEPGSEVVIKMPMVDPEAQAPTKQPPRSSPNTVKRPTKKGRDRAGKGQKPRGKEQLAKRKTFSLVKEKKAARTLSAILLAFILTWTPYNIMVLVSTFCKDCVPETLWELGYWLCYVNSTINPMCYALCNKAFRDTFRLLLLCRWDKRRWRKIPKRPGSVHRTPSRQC
Outline: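 CHO-K1 cells stably expressing muscarinic receptor, loaded with Fluo-4; 11-point 1:3 compound series added and calcium flux read over 300 s at 1 Hz. Agonism from direct calcium rise, PAM activity as potentiation of EC20 acetylcholine, antagonism as decrease of EC80 acetylcholine; four-parameter logistic fits.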

[2] = system: C57Bl/6 mice; assay: Behavioral manifestations of seizure activity (modified Racine scoring); format: in vivo; conditions: 100 mg/kg i.p., monitored up to 3 hr for seizure behavior
Protocol: To evaluate induction of behavioral manifestation of seizure activity, C57Bl/6 mice received administration of vehicle or 100 mg/kg M1 PAM. Compounds were formulated in 10% Tween 80 (pH 7.0) at a concentration of 10 mg/ml and injected i.p. (n=3). Animals were monitored continuously and scored for behavioral manifestations of seizure activity at 5, 10, 15 and 30 min, and 1 and 3 hr. Behavioral manifestations of seizures were scored using a modified Racine scoring system (R. J. Racine, Modification of seizure activity by electrical stimulation. II. Motor seizure. Electroencephalogr. Clin. Neurophysiol. 32, 281 (March, 1972)). Briefly, a score of 0 represents no behavior alterations; score 1, immobility, mouth and facial movements, or facial clonus; score 2, head nodding, tail extension; score 3, forelimb clonus, repetitive movements; score 4, rearing and tonic clonic seizure; and score 5, continuous rearing and falling, severe generalized tonic clonic seizure.

[3] = Brain tissue distribution study in Sprague-Dawley rat (IV cassette); format: in vivo; conditions: male, IV cassette 0.2 mg/kg per compound, 0.25 h post-dose
Protocol: The plasma protein and nonspecific brain homogenate binding of certain compounds were determined in plasma or brain homogenate using contemporary equilibrium dialysis and employing HTDialysis™ Teflon dialysis chambers and cellulose membranes (MWCO 12-14 K) from HTDialysis (Gales Ferry, Conn.). Brain tissue homogenate was prepared by diluting one volume whole brain tissue with three volumes of phosphate buffer (pH 7.4). The mixture was then subjected to mechanical homogenation employing a Mini-Beadbeater™ and 1.0 mm Zirconia/Silica Beads from BioSpec Products (Bartlesville, Okla.). Plasma or brain homogenate was fortified with test article and mixed thoroughly for a final concentration of 5 μM for plasma and 1 μM for brain homogenate. Subsequently, 100 μL of the plasma- or brain homogenate-compound mixture was transferred to one side of a dialysis chamber with an accompanying 100 μL of phosphate buffer (pH 7.4) in the opposite side of the chamber. The plate block was sealed and incubated for 6 hours (37° C.) with shaking. Upon completion, aliquots from each chamber were matrix-matched with either plasma or brain homogenate (1:1, buffer side) or buffer (1:1, plasma or brain homogenate side) in a new 96-well plate, at which time the proteins and cell debris/membranes (for brain homogenate) were precipitated with ice-cold acetonitrile containing an internal standard (carbamazepine, 50 nM). The plate was centrifuged (3000 rcf, 10 min) and supernatants diluted (1:1, v/v) via transfer into a fresh 96-well plate containing deionized H2O; the plate was sealed in preparation for LC/MS/MS bioanalysis. The assay was performed in triplicate for each compound.
A cassette of compounds (n=5/cassette) were formulated from 10 mmol L^−1 solutions prepared in DMSO. In order to reduce the absolute volume of DMSO that was administered, the compounds were combined and diluted with ethanol and PEG 400 to achieve a final concentration of 0.4 mg mL^−1 for each compound (2 mg mL^−1 total) administered in each cassette; the maximal dosing volume was 0.5 mL kg^−1 of each animal's body mass. The final dosing solutions consisted of approximately 10% ethanol, 40% PEG400, and 50% DMSO (v/v). Each cassette dose was administered IV via the jugular vein to one dual-cannulated (carotid artery and jugular vein) adult male Sprague-Dawley rat, each weighing between 250 and 350 g (Harlan, Indianapolis, Ind.) for a final dose of 0.2 mg kg^−1 per compound. Whole blood and dissected whole brains were collected at the time of euthanization (0.25 h post-dose), with the whole brain being removed and thoroughly rinsed with cold phosphate-buffered saline prior to freezing on dry ice. […]

SMILES	Emax [1] [%]	EC50 [1] [nM]	Adverse Effect in mice (100 mpk, i.p.) [2]	Kp uu at 0.25 h ([3]; brain/plasma (unbound), unbound distribution partition coefficient)	Kp at 0.25 h ([3]; brain/plasma, distribution partition coefficient)
Cn1cc(-c2ccc(Cc3cc(C(=O)NC4CCOCC4)nc4c3ccn4C)cn2)cn1 [Compound 47, 1-methyl-4-[[6-(1-methylpyrazol-4-yl)-3-pyridyl]methyl]-N-tetrahydropyran-4-yl-pyrrolo[2,3-b]pyridine-6-carboxamide]	83.8	180	No	0.32	0.28
Cn1ccc(-c2ccc(Cc3cc(C(=O)NC[C@@H]4CCCO4)nc4c3ccn4C)cn2)n1 [Compound 158, 1-methyl-4-[[6-(1-methylpyrazol-3-yl)-3-pyridyl]methyl]-N-[[(2S)-tetrahydrofuran-2-yl]methyl]pyrrolo[2,3-b]pyridine-6-carboxamide]	72.1	360			
O=C(NCC1CCOC1)c1cc(Cc2ccc(-n3cccn3)cc2)c2ccsc2n1 (stereo not drawn) [Compound 79, 4-[(4-pyrazol-1-ylphenyl)methyl]-N-(tetrahydrofuran-3-ylmethyl)thieno[2,3-b]pyridine-6-carboxamide]	65.6	2080			
Cn1ccc(-c2ccc(Cc3cc(C(=O)NC4CC(F)C4)nc4sccc34)cc2)n1 (stereo not drawn) [Compound 97, N-(3-fluorocyclobutyl)-4-[[4-(1-methylpyrazol-3-yl)phenyl]methyl]thieno[2,3-b]pyridine-6-carboxamide]	65.9	140			
Cn1ccc2c(Cc3ccc(-n4cccn4)cc3)cc(C(=O)NC3CC4(COC4)C3)nc21 [Compound 19, 1-methyl-N-(2-oxaspiro[3.3]heptan-6-yl)-4-[(4-pyrazol-1-ylphenyl)methyl]pyrrolo[2,3-b]pyridine-6-carboxamide]	68.7	110			
Cc1nc(-c2ccc(Cc3cc(C(=O)NCC4CCOC4)nc4sccc34)cc2)co1 (stereo not drawn) [Compound 138, 4-[[4-(2-methyloxazol-4-yl)phenyl]methyl]-N-(tetrahydrofuran-3-ylmethyl)thieno[2,3-b]pyridine-6-carboxamide]	59.5	3150			
Cn1ccc(-c2ccc(Cc3cc(C(=O)NC4CC5(COC5)C4)nc4c3ccn4C)cc2)n1 [Compound 40, 1-methyl-4-[[4-(1-methylpyrazol-3-yl)phenyl]methyl]-N-(2-oxaspiro[3.3]heptan-6-yl)pyrrolo[2,3-b]pyridine-6-carboxamide]	74	750			
O=C(NC1COC1)c1cc(Cc2ccc(-n3cccn3)cc2)c2ccsc2n1 [Compound 81, N-(oxetan-3-yl)-4-[(4-pyrazol-1-ylphenyl)methyl]thieno[2,3-b]pyridine-6-carboxamide]	69.4	190			
O=C(NC1CC(F)C1)c1cc(Cc2ccc(-n3cccn3)cc2)c2ccsc2n1 (stereo not drawn) [Compound 82]	69.6	2090			
O=C(N[C@H]1CCOC1)c1cc(Cc2ccc(-n3cccn3)cc2)c2ccsc2n1 [Compound 77, 4-[(4-pyrazol-1-ylphenyl)methyl]-N-[(3S)-tetrahydrofuran-3-yl]thieno[2,3-b]pyridine-6-carboxamide]	69.6	390			
Cn1ccc2c(Cc3ccc(-n4cccn4)cc3)cc(C(=O)N[C@H]3CC[C@@H]3O)nc21 [Compound 20, N-[(1S,2S)-2-hydroxycyclobutyl]-1-methy1-4-[(4-pyrazol-1-ylphenyl)methyl]pyrrolo[2,3-b]pyridine-6-carboxamide]	73.3	390			
Cn1ccc2c(Cc3ccc(-c4nccs4)cc3)cc(C(=O)N[C@H]3CC[C@@H]3O)nc21 [Compound 63, N-[(1S,2S)-2-hydroxycyclobutyl]-1-methyl-4-[(4-thiazol-2-ylphenyl)methyl]pyrrolo[2,3-b]pyridine-6-carboxamide]	60.4	1500			
CCn1ccc2c(Cc3ccc(-n4cccn4)cc3)cc(C(=O)NC3CC4(COC4)C3)nc21 [Compound 12, 1-ethyl-N-(2-oxaspiro[3.3]heptan-6-yl)-4-[(4-pyrazol-1-ylphenyl)methyl]pyrrolo[2,3-b]pyridine-6-carboxamide]	72.3	200			
Cn1ccc(-c2ccc(Cc3cc(C(=O)N[C@H]4CCCC[C@@H]4O)nc4sccc34)cn2)n1 [Compound 101, N-[(1S,2S)-2-hydroxycyclohexyl]-4-[[6-(1-methylpyrazol-3-yl)-3-pyridyl]methyl]thieno[2,3-b]pyridine-6-carboxamide]	67.2	2660			
Cn1ncc2c(Cc3ccc(-n4cccn4)cc3)cc(C(=O)NC3CC4(COC4)C3)nc21 [Compound 6, 1-methyl-N-(2-oxaspiro[3.3]heptan-6-yl)-4-[(4-pyrazol-1-ylphenyl)methyl]pyrazolo[3,4-b]pyridine-6-carboxamide]	69.9	1730			
Cn1ccc(-c2ccc(Cc3cc(C(=O)NC4CCOCC4)nc4sccc34)cn2)n1 [Compound 102, 4-[[6-(1-methylpyrazol-3-yl)-3-pyridyl]methyl]-N-tetrahydropyran-4-yl-thieno[2,3-b]pyridine-6-carboxamide]	37.9	20			
Cn1ccc2c(Cc3ccc(-c4cscn4)cc3)cc(C(=O)N[C@@H]3CCCOC3)nc21 [Compound 32, 1-methyl-N-[(3R)-tetrahydropyran-3-yl]-4-[(4-thiazol-4-ylphenyl)methyl]pyrrolo[2,3-b]pyridine-6-carboxamide]	39.7	380			
Cn1ccc2c(Cc3ccc(-c4cscn4)cc3)cc(C(=O)NC3CN(C4COC4)C3)nc21 [Compound 36, 1-methyl-N-[1-(oxetan-3-yl)azetidin-3-yl]-4-[(4-thiazol-4-ylphenyl)methyl]pyrrolo[2,3-b]pyridine-6-carboxamide]	66	3120			
Cn1ncc2c(Cc3ccc(-n4cccn4)cc3)cc(C(=O)N[C@H]3CCCC[C@@H]3O)nc21 [Compound 8, N-[(1S,2S)-2-hydroxycyclohexyl]-1-methyl-4-[(4-pyrazol-1-ylphenyl)methyl]pyrazolo[3,4-b]pyridine-6-carboxamide]	86.6	200			
COCCNC(=O)c1cc(Cc2ccc(-c3ccn(C)n3)nc2)c2ccsc2n1 [Compound 111, N-(2-methoxyethyl)-4-[[6-(1-methylpyrazol-3-yl)-3-pyridyl]methyl]thieno[2,3-b]pyridine-6-carboxamide]	63.2	370			
Cn1ccc(-c2ccc(Cc3cc(C(=O)NC4CCOCC4(C)C)nc4sccc34)cn2)n1 (stereo not drawn) [Compound 105, N-(3,3-dimethyltetrahydropyran-4-yl)-4-[[6-(1-methylpyrazol-3-yl)-3-pyridyl]methyl]thieno[2,3-b]pyridine-6-carboxamide]	63.5	370			
CC1CC(NC(=O)c2cc(Cc3ccc(-n4cccn4)cc3)c3ccsc3n2)CC(C)O1 (stereo not drawn) [Compound 73, N-(2,6-dimethyltetrahydropyran-4-yl)-4-[(4-pyrazol-1-ylphenyl)methyl]thieno[2,3-b]pyridine-6-carboxamide]	68.1	370			
Cc1nc(-c2ccc(Cc3cc(C(=O)N[C@H]4CCOC4)nc4sccc34)cc2)co1 [Compound 136, 4-[[4-(2-methyloxazol-4-yl)phenyl]methyl]-N-[(3S)-tetrahydrofuran-3-yl]thieno[2,3-b]pyridine-6-carboxamide]	60.6	620			
CC1COCCC1NC(=O)c1cc(Cc2ccc(-n3cccn3)cc2)c2ccsc2n1 (stereo not drawn) [Compound 75]	60.7	490			
Cn1cc(-c2ccc(Cc3cc(C(=O)NC4CCOCC4)nc4sccc34)cn2)cn1 [Compound 114, 4-[[6-(1-methylpyrazol-4-yl)-3-pyridyl]methyl]-N-tetrahydropyran-4-yl-thieno[2,3-b]pyridine-6-carboxamide]	38.6	10			
CCn1ccc2c(Cc3ccc(-n4cccn4)cc3)cc(C(=O)N[C@H]3CCOC[C@@H]3O)nc21 [Compound 9, 1-ethyl-N-[(3R,4S)-3-hydroxytetrahydropyran-4-yl]-4-[(4-pyrazol-1-ylphenyl)methyl]pyrrolo[2,3-b]pyridine-6-carboxamide]	64.7	20			
Cc1nc(-c2ccc(Cc3cc(C(=O)NC4(C)COC4)nc4sccc34)cc2)co1 [Compound 140, 4-[[4-(2-methyloxazol-4-yl)phenyl]methyl]-N-(3-methyloxetan-3-yl)thieno[2,3-b]pyridine-6-carboxamide]	59.2	240			
